# Structures can show the parent of a compound that is named as a salt.
# Legend:
# [1] = molecular target: T1, Rat FAAH-1 (Rattus norvegicus, UniProt P97612); assay: Rat FAAH-1 assay (Assay Method 2), 3H-anandamide hydrolysis in cell homogenate; type: biochemical
# T1 construct: expressed in transfected cells
# T1 sequence (P97612 1-579): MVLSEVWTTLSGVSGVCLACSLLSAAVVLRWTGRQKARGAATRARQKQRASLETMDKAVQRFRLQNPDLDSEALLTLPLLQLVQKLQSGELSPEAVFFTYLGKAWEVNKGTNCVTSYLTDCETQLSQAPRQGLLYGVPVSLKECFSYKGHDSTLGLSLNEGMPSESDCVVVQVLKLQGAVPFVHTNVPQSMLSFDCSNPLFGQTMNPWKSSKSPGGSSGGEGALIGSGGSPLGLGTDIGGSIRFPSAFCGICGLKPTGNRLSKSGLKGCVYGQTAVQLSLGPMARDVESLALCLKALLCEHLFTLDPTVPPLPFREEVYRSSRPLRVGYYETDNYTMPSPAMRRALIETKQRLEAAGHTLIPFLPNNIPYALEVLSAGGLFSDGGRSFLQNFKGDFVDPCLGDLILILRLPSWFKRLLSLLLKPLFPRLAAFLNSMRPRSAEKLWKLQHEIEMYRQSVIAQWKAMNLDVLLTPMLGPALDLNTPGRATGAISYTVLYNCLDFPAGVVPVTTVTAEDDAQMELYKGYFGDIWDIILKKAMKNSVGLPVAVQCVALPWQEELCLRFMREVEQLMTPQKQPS
# Description: A. Transfection of Cells with Rat FAAH-1
# (§1) A 10-cm tissue culture dish with a confluent monolayer of SK-N-MC cells was split 2 days (d) prior to transfection. Using sterile technique, the media was removed and the cells were detached from the dish by the addition of trypsin. One fifth of the cells were then placed onto a new 10-cm dish. Cells were grown in a 37° C. incubator with 5% CO2 in Minimal Essential Media Eagle with 10% Fetal Bovine Serum. After 2 d, cells were approximately 80% confluent. These cells were removed from the dish with trypsin and pelleted in a clinical centrifuge. The pellet was re-suspended in 400 μL complete media and transferred to an electroporation cuvette with a 0.4 cm gap between the electrodes. Supercoiled rat FAAH cDNA (1 μg) was added to the cells and mixed. The voltage for the electroporation was set at 0.25 kV, and the capacitance was set at 960 μF. After electroporation, the cells were diluted into complete media (10 mL) and plated onto four 10-cm dishes. Because of the variability in the efficiency of electroporation, four different concentrations of cells were plated. The ratios used were 1:20, 1:10, and 1:5, with the remainder of the cells being added to the fourth dish. The cells were allowed to recover for 24 h before adding the selection media (complete media with 600 μg/mL G418). After 10 d, dishes were analyzed for surviving colonies of cells. Dishes with well-isolated colonies were used. Cells from individual colonies were isolated and tested.
# (§2) The assay mixture consisted of 50 μL of the cell homogenate, 10 μL of the test compound, and 40 μL of anandamide [1-^3H-ethanolamine] (^3H-AEA, Perkin-Elmer, 10.3 Ci/mmol), which was added last, for a final tracer concentration of 80 nM. The reaction mixture was incubated at rt for 1 h. During the incubation, 96-well Multiscreen filter plates (catalog number MAFCNOB50; Millipore, Bedford, Mass., USA) were loaded with 25 μL of activated charcoal (Multiscreen column loader, catalog number MACL09625, Millipore) and washed once with 100 μL of MeOH. Also during the incubation, 96-well DYNEX MicroLite plates (catalog number NL510410) were loaded with 100 μL of MicroScint40 (catalog number 6013641, Packard Bioscience, Meriden, Conn., USA). After the 1 h incubation, 60 μL of the reaction mixture were transferred to the charcoal plates, which were then assembled on top of the DYNEX plates using Centrifuge Alignment Frames (catalog number MACF09604, Millipore). The unbound labeled ethanolamine was centrifuged through to the bottom plate (5 min at 2000 rpm), which was preloaded with the scintillant, as described above. The plates were sealed and left at rt for 1 h before counting on a Hewlett Packard TopCount.
# (§3) Where activity is shown as greater than (>) a particular value, the value is the solubility limit of the compound in the assay medium or the highest concentration tested in the assay.
# [2] = molecular target: T2, FAAH (Homo sapiens, UniProt O00519); assay: Human FAAH assay (Assay Method 1), 3H-anandamide hydrolysis in cell homogenate; type: biochemical; design: expressed in transfected cells; alternatively T84 frozen cell pellets (endogenous FAAH)
# T2 sequence (O00519 1-579): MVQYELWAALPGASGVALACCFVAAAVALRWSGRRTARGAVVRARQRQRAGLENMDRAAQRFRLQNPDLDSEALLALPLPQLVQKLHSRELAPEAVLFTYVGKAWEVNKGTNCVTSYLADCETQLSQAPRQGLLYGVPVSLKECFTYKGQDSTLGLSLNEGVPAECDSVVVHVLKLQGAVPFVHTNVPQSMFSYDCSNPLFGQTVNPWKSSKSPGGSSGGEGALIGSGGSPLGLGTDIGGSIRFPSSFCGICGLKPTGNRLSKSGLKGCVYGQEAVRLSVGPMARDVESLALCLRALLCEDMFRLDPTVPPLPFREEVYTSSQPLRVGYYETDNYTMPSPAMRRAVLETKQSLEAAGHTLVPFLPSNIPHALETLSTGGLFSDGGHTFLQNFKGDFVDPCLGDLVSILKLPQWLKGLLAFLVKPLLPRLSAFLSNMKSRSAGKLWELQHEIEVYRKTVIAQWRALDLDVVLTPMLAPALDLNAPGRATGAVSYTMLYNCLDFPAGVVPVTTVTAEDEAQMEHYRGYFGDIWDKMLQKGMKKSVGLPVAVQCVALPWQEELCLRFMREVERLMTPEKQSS
# Description: A. Transfection of Cells with Human FAAH
# as §1, with “Supercoiled human” for “Supercoiled rat”
# as §2, with “[1-3H-ethanolamine]” for “[1-^3H-ethanolamine]”
# as §3
IC50 [1] [nM],IC50 [2] [nM],SMILES
170,19,"N[C@@H](CNc1cc(-c2ccc(SC(F)(F)F)cc2)ncn1)c1ccccc1 [Example 11, (1R)-1-Phenyl-N^2-(6-{4-[(trifluoromethyl)sulfanyl]phenyl}pyrimidin-4-yl)ethane-1,2-diamine hydrochloride acid salt]"
5000,8000,"N[C@H](CNc1cc(-c2ccc(C(F)(F)F)c(Cl)c2)ncn1)c1ccc(Cl)c(Cl)c1 [Example 42, (1S)—N^2-[6-(3-Chloro-4-trifluoromethyl-phenyl)-pyrimidin-4-yl]-1-(3,4-dichloro-phenyl)-ethane-1,2-diamine]"
900,250,"N[C@@H](CNc1cc(-c2ccc(Cl)c(C(F)(F)F)c2)ncn1)c1ccccc1 [Example 17, (1R)—N^2-{6-[4-Chloro-3-(trifluoromethyl)phenyl]pyrimidin-4-yl}-1-phenylethane-1,2-diamine hydrochloride acid salt]"
770,1000,"N#Cc1cccc([C@@H](N)CNc2cc(-c3ccc(C(F)(F)F)c(Cl)c3)ncn2)c1 [Example 49, (1R)-3-{1-Amino-2-[6-(3-chloro-4-trifluoromethyl-phenyl)-pyrimidin-4-ylamino]-ethyl}-benzonitrile]"
75,66,"N[C@@H](CNc1cc(-c2ccc(OC(F)(F)F)c(F)c2)ncn1)c1ccc(F)cc1 [Example 64, (1R)—N^2-1-(4-Fluoro-phenyl)-[6-(3-fluoro-4-trifluoromethoxy-phenyl)-pyrimidin-4-yl]-ethane-1,2-diamine, trifluoroacetic acid salt]"
2600,1000,"N[C@H](CNc1cc(-c2ccc(C(F)(F)F)c(Cl)c2)ncn1)c1cccc(F)c1 [Example 36, (1S)—N^2-[6-(3-Chloro-4-trifluoromethyl-phenyl)-pyrimidin-4-yl]-1-(3-fluoro-phenyl)-ethane-1,2-diamine, trifluoroacetic acid salt]"
60,20,"N[C@@H](CNc1cc(-c2ccc(C(F)(F)F)c(Cl)c2)ncn1)c1ccc(F)c(F)c1 [Example 41, (1R)—N^2-[6-(3-Chloro-4-trifluoromethyl-phenyl)-pyrimidin-4-yl]-1-(3,4-difluoro-phenyl)-ethane-1,2-diamine, trifluoroacetic acid salt]"
675,77,"N[C@@H](CNc1cc(-c2ccc(OCC(F)(F)F)c(F)c2)ncn1)c1ccccc1 [Example 21, (1R)—N^2-{6-[3-Fluoro-4-(2,2,2-trifluoroethoxy)phenyl]pyrimidin-4-yl}-1-phenylethane-1,2-diamine hydrochloride acid salt]"
1000,70,"CCOc1ccc(-c2cc(NC[C@H](N)c3ccccc3)ncn2)cc1 [Example 19, (1R)—N^2-[6-(4-Ethoxyphenyl)pyrimidin-4-yl]-1-phenylethane-1,2-diamine hydrochloride acid salt]"
3000,3000,"N#Cc1cccc([C@H](N)CNc2cc(-c3ccc(C(F)(F)F)c(Cl)c3)ncn2)c1 [Example 48, (1S)-3-{1-Amino-2-[6-(3-chloro-4-trifluoromethyl-phenyl)-pyrimidin-4-ylamino]-ethyl}-benzonitrile]"
40,125,"N[C@@H](CNc1cc(-c2ccc(C(F)(F)F)c(Cl)c2)ncn1)c1ccc2ccccc2c1 [Example 51, (1R)—N^2-[6-(3-Chloro-4-trifluoromethyl-phenyl)-pyrimidin-4-yl]-1-naphthalen-2-yl-ethane-1,2-diamine]"
1600,113,"CN(C)S(=O)(=O)c1ccc(-c2cc(NC[C@H](N)c3ccccc3)ncn2)cc1 [Example 23, 4-(6-{[(2R)-2-Amino-2-phenylethyl]amino}pyrimidin-4-yl)-N,N-dimethylbenzenesulfonamide hydrochloride acid salt]"

SMILES,IC50 [1] [nM],IC50 [2] [nM]
"CS(=O)(=O)c1ccc([C@@H](N)CNc2cc(-c3ccc(C(F)(F)F)c(Cl)c3)ncn2)cc1 [Example 63, (1R)—N^2-[6-(3-Chloro-4-trifluoromethyl-phenyl)-pyrimidin-4-yl]-1-(4-methanesulfonyl-phenyl)-ethane-1,2-diamine]",> 10000,> 10000
"N[C@@H](CNc1cc(-c2cccc(OC(F)(F)F)c2)ncn1)c1ccccc1 [Example 18, (1R)-1-Phenyl-N^2-{6-[3-(trifluoromethoxy)phenyl]pyrimidin-4-yl}ethane-1,2-diamine hydrochloride acid salt]",> 10000,920

# — US8906914B2, “Ethylene diamine modulators of fatty acid hydrolase” (priority 2009, dated 2014)
